Test [1] concerns the target T1, Enoyl-[acyl-carrier-protein] reductase [NADH] (Mycobacterium tuberculosis (strain ATCC 25618 / H37Rv), UniProt P9WGR1).
T1 sequence (P9WGR1 whole entry): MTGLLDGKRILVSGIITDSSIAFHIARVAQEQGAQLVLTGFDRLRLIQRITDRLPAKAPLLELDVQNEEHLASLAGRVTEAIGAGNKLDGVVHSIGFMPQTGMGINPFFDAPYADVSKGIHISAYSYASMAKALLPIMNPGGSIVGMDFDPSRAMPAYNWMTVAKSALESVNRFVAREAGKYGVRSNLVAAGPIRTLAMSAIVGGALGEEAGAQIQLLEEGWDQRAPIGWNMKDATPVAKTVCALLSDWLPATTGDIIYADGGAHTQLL
Kind of test: Measurement of Inhibition Constants. To be noted: pH 6.8; 22 °C. The procedure:
Inhibition constants (Ki) were calculated by determining the kcat and Km (DDCoA) values at several fixed inhibitor concentrations. The inhibition data were analyzed using the standard equation for uncompetitive inhibition. For compounds with Ki values in the low nanomolar range, initial velocities were determined at a fixed substrate concentration and the data were fit to the equation: vi/v0 = (Km + S)/(Km + S[1 + I/ Ki]). Where vi and v0 are the initial velocities in the presence and absence of inhibitor. […] Data fitting was performed using Grafit 4.0 (Erithacus Software Ltd.).

The target of test [2] is T1, Enoyl-[acyl-carrier-protein] reductase [NADH]. Kind of test: Enoyl-CoA Reductase Inhibition Assay. The note with it: pH 6.8; 22 °C. How it is done: The assay measured the NADH-dependent catalysis of a DD-CoA substrate as a decrease in 340 nm absorbance resulting from conversion of NADH to NAD. The absorbance OD readings were taken on a microreader. The IC50 values were determined using at least eight concentrations, with each concentration assayed in triplicate under saturating substrate conditions. The values were calculated from plots of enzyme activity versus the log of the inhibitor concentration using the GraFit IC50 four-parameter fit software.

The source of these data is BindingDB's records for doi:10.1021/cb0500042 (Suny Stony Brook, 2006).

A word on the Ki: it is the equilibrium dissociation constant of an inhibitor or competing ligand from its target. A higher Ki goes with weaker binding. The term IC50 denotes the concentration that gives 50% inhibition. Low readings indicate inhibition by little substance, high ones a need for much substance.

Consider `CCCCCc1ccc(Oc2ccccc2)c(O)c1` [5-pentyl-2-phenoxylphenol], for which the Ki in test [1] was found to be 11.8 nM. The compound `CCCCCCCCCCCCCCc1ccc(Oc2ccccc2)c(O)c1` [2-phenoxy-5-tetradecylphenol] returned a Ki in test [1] of 30.3 nM. This compound also came in with an IC50 in test [2] of 150 nM. In test [1], `CCCCCCc1ccc(Oc2ccccc2)c(O)c1` [5-hexyl-2-phenoxyphenol] yielded a Ki of 9.4 nM. Besides, in test [2], the IC50 was determined as 11 nM.

In test [1], `CCCCCCCCc1ccc(Oc2ccccc2)c(O)c1` [5-Octyl-2-phenoxy-phenol] returned a Ki of 1.1 nM. The same measure, in the same setting: to `NC(=O)C1=CN([C@@H]2O[C@H](CO[P@@](=O)(O)O[P@@](=O)(O)OC[C@H]3O[C@@H](n4cnc5c(N)ncnc54)[C@H](O)[C@@H]3O)[C@@H](O)[C@H]2O)C=C[C@@H]1C(=O)c1ccncc1` [[[(2R,3S,4R,5R)-5-(6-aminopurin-9-yl)-3,4-dihydroxy-oxolan-2-yl]methoxy-hydroxy-phosphoryl]oxy-[[(2R,3S,4R,5R)-5-[(4S)-3-carbamoyl-4-(pyridine-4-carbonyl)-4H-pyridin-1-yl]-3,4-dihydroxy-oxolan-2-yl]methoxy]phosphinic acid] belongs 0.75 nM.
